Structures can show the parent of a compound that is named as a salt. Where two headings read alike, the source gives them in different places.
How the values were obtained:
SXT-Exo (S066) = SXT-Exo (S066) (Vibrio cholerae, UniProt Q8KQV9); experiment: quenched PicoGreen dsDNA exonuclease assay; format: biochemical
[1] = biological target: SXT-Exo alkaline exonuclease (S066) from the SXT genetic element of Vibrio cholerae (SXT integrating conjugative element of Vibrio cholerae) (UniProt Q79S39); experiment: SEC; Superdex 200 HR 10/300 GL, 25 mM Tris-HCl pH7.4, 150 mM NaCl, 1 mM EDTA, 5 mM imidazole, 0.4 ml/min, 4°C; column calibrated with protein standards; oligomer size from the apparent molecular weight
Q79S39 = experiment: as above
P03697 = experiment: as above

Chain of SXT-Exo (S066) (Q8KQV9 1-338 limits assumed): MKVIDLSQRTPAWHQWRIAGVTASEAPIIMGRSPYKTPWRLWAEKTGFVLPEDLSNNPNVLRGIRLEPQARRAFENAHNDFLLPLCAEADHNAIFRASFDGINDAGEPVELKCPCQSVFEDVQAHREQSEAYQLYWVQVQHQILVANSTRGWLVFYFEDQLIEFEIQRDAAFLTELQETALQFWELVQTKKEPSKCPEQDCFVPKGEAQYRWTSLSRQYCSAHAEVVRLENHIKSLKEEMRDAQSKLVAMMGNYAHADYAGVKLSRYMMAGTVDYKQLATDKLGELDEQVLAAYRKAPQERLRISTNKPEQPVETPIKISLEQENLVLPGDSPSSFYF

Q: `O=S(=O)(O)O` [potassium sulfate] was tested. Which IC50 (SXT-Exo (S066)) did it give?
A: Its IC50 is ~35 mM.

Q: How did the IC50 (SXT-Exo (S066); IC50) turn out when `O=P(O)(O)O` [sodium phosphate] was run?
A: Its IC50 is 25 mM.

Q: `O=S(=O)(O)O` [sodium sulfate] was tested. Which IC50 (SXT-Exo (S066); IC50) did it give?
A: Its IC50 is ~20 mM.

Q: Which stoichiometry N [1] does the source give for “SXT-Exo alkaline exonuclease (S066) from the SXT genetic element of Vibrio cholerae (from UniProt Q79S39 1-215) (enzyme)” here?
A: The stoichiometry N was 3.

B1: SXT-Exo alkaline exonuclease (S066) from the SXT genetic element of Vibrio cholerae (protein)
chain: MKTLSERLNHALQLTGVTQSELARRIGIKQQSISQICSGKSARSRYTMQIAEALRVNAHWLATGDGEIGLGVGNVEVGPDIKGRIPLINWVQAGDWTEIAEGFAHEDAEEWREVTGKAHEGCFALRVKGDSMENPSGKKSIPEGAVIVVDPELPYSSGSLVVARLDDSKEATFKQLVIDGEQKYLKPLNPQYPAIPINGNCTIIGVVRQAIIDFW
Q: How did the “monomers per oligomer from the SEC apparent molecular weight” value (Q79S39) turn out when B1 was run?
A: The value was “corresponded to ca. 3.5 SXT-Exo monomers”.

B2: lambda-Exo alkaline exonuclease from bacteriophage lambda (protein)
chain: MTPDIILQRTGIDVRAVEQGDDAWHKLRLGVITASEVHNVIAKPRSGKKWPDMKMSYFHTLLAEVCTGVAPEVNAKALAWGKQYENDARTLFEFTSGVNVTESPIIYRDESMRTACSPDGLCSDGNGLELKCPFTSRDFMKFRLGGFEAIKSAYMAQVQYSMWVTRKNAWYFANYDPRMKREGLHYVVIERDEKYMASFDEIVPEFIEKMDEALAEIGFVFGEQWR
Q: With B2 as the molecule, how does the “monomers per oligomer from the SEC apparent molecular weight” value (P03697) read?
A: Its value is “corresponded to 3.35 protein monomers”.

— PMC3118119, “Functional characterization of an alkaline exonuclease and single strand annealing protein from the SXT genetic element of Vibrio cholerae” (BMC Molecular Biology, 2011)
